Earlier results in patent publication US20090241222A1, “TANDEM REAPEAT DNA CONSTRUCTS PRODUCING PROTEINS THAT ATTACK PLANT PATHOGENIC VIRUSES, FUNGI, AND BACTERIA BY DISRUPTING TRANSCRIPTION FACTORS ESSENTIAL FOR REPLICATION THEREOF IN PLANTS” (priority 2008, published 2009).

Test system: Magnaporthe grisea
Conditions: PA treated plants; cited from earlier work

For O=C(O)c1ccccn1 [picolinic acid, 2-pyridine carboxylic acid], the “resistance against M. grisea” value is given as “enhanced”.
